Test [1] relates to paw of rats. Kind of test: Pharmacological test for anti-inflammatory properties (carrageenan rat paw swelling). It is filed as in vivo. Conditions: oral 1 hour before carrageenan (0.05 ml of 1%), swelling 4 hours after injection by plethysmography, dose not given. The procedure:
1. Pharmacological test for anti-inflammatory properties.
The compounds to be tested are given as freshly prepared solutions or suspensions by oral route 1 hour before injecting the paw of rats with carrageenan which is a known inflammatory agent.
The inflammatory agent (carrageenan) either in solution or suspension is then injected into the plantar tissue of the right hind paw of each rat, the left paw remaining untreated and serving as control. Each animal receives, for example, 0.05 ml of an aqueous solution containing 1% by weight of carrageenan and 0.9% of sodium chloride.
4 hours after the injection of the inflammatory agent, the importance of swelling is determined by plethysmography and is expressed as a percent of the volume of the control paw.
The anti-inflammatory effect expressed as a percentage of inhibition is obtained by comparison between rats treated with the anti-inflammatory compound and a control group of rats.
For orientation: Carrageenan injected into the paw causes an acute inflammation.

Test [2] concerns rats. Kind of test: Pharmacological test for diuretic properties (urine volume). Conditions: 50 mg/kg gastric gavage, 25 ml/kg saline s.c., urine collected 4 hours, ml/kg of body weight. It is filed as in vivo. The procedure: 2. Pharmacological tests for diuretic properties Lots of 3 rats weighting 250-300 g have been constituted at random, each of them being submitted to the same treatment. The compound to be tested was administered by .[.gastric gavage at a dose of 50 ml/kg as a solution or a.]. .Iadd.gastric gavage at a dose of 50 mg/kg as a solution or a .[…].suspension in water containing 0.45% of methylcellulose (which is an inert mucilaginous substance). Control animals received only distilled water as a placebo. At the same time, all the animals received 25 ml/kg of physiological saline by subcutaneous injection. The rats were then placed in metabolic cages, each cage containing 3 animals receiving the same treatment. The urines have been collected during 4 hours. […] The diuresis is expressed in ml/kg of body weight.

Turning to `CC(C)NC(=O)NS(=O)(=O)c1cnccc1Nc1cccc(C(F)(F)F)c1` [JDL 414, 3-isopropylcarbamylsulfonamido-4-(3'-trifluoromethyl)-phenylaminopyridine], in test [1], the “% inhibition of acute oedema” value was found to be 75.2%. The compound further registered a Diuresis in test [2] of 82.9 mL/kg.
Take `CNC(=O)NS(=O)(=O)c1cnccc1Nc1ccc(Cl)cc1` [JDL 415, 3-methylcarbamylsulfonamido-4-(4'-chloro)-phenylaminopyridine]: the “% inhibition of acute oedema” value in test [1] amounted to 75.2%. The same compound registered a Diuresis in test [2] of 47.0 mL/kg.
Taken in the same sequence, the figures for `CCNC(=O)NS(=O)(=O)c1cnccc1Nc1ccc(Cl)cc1` [JDL 416, 3-ethylcarbamylsulfonamido-4-(4'-chloro)-phenylaminopyridine] were 85.6% and 52.8 mL/kg.
Taken in the same sequence, the figures for `CCCNC(=O)NS(=O)(=O)c1cnccc1Nc1ccc(Cl)cc1` [JDL 417, 3-propylcarbamylsulfonamido-4-(4'-chloro)-phenylaminopyridine] were 72.8% and 58.3 mL/kg.
The like results for `CCNC(=S)NS(=O)(=O)c1cnccc1Nc1cccc(C(F)(F)F)c1` [JDL 420, 3-ethylthiocarbamylsulfonamido-4-(3'trifluoromethyl)-phenylaminopyridine] were, in that order, 52.8% and 65.0 mL/kg.
Turning to `CC(C)NC(=O)NS(=O)(=O)c1cnccc1Nc1ccccc1Cl` [JDL 421, 3-isopropylcarbamylsulfonamido-4-(2'-chloro)-phenylaminopyridine], the “% inhibition of acute oedema” value in test [1] turned out to be 88.8%. The compound further gave a Diuresis in test [2] of 72.0 mL/kg.
Turning to `CCCCNC(=O)NS(=O)(=O)c1cnccc1Nc1ccccc1Cl` [JDL 422, 3-butylcarbamylsulfonamido-4(2'-chloro)-phenylaminopyridine], the “% inhibition of acute oedema” value in test [1] came to 46.4%. In test [2], the Diuresis worked out at 56.7 mL/kg.
The like results for `CC(C)NC(=O)NS(=O)(=O)c1cnccc1Nc1ccc(Cl)cc1` [JDL 423, 3-isopropylcarbamylsulfonamido-4-(4'-chloro)-phenylaminopyridine] were, in that order, 64.0% and 68.7 mL/kg.
The like results for `CCCCNC(=O)NS(=O)(=O)c1cnccc1Nc1ccc(Cl)cc1` [JDL 424, 3-butylcarbamylsulfonamido-4-(4'-chloro)-phenylaminopyridine] were, in that order, 50.4% and 21.0 mL/kg.
Taken in the same sequence, the figures for `CC(C)(C)NC(=O)NS(=O)(=O)c1cnccc1Nc1ccc(Cl)cc1` [JDL 425, 3-tertiobutylcarbamylsulfonamido-4-(4'-chloro)-phenylaminopyridine] were 42.4% and 37.7 mL/kg.
Turning to `O=C(NC1CCCCC1)NS(=O)(=O)c1cnccc1Nc1ccc(Cl)cc1` [JDL 426, 3-cyclohexylcarbamylsulfonamido-4-(4'-chloro)-phenylaminopyridine], in test [1], the “% inhibition of acute oedema” value came out at 73.6%. Moreover, the Diuresis in test [2] was found to be 22.0 mL/kg.
The like results for `CC(C)(C)NC(=O)NS(=O)(=O)c1cnccc1Nc1ccccc1Cl` [JDL 427, 3-tertiobutylcarbamylsulfonamido-4-(2'-chloro)-phenylaminopyridine] were, in that order, 53.6% and 11.4 mL/kg.
The like results for `O=C(NC1CCCCC1)NS(=O)(=O)c1cnccc1Nc1ccccc1Cl` [JDL 428, 3-cyclohexylcarbamylsulfonamido-4-(2'-chloro)-phenylamionpyridine] were, in that order, 17.6% and 15.6 mL/kg.
The like results for `CCNC(=O)NS(=O)(=O)c1cnccc1Nc1cccc(C)c1` [JDL 463, 3-ethylcarbamylsulfonamido-4-(3'-methyl)-phenylaminopyridine] were, in that order, 73.6% and 76.1 mL/kg.
Regarding `Cc1cccc(Nc2ccncc2S(=O)(=O)NC(=O)NC(C)C)c1` [JDL 464, 3-isopropylcarbamylsulfonamido-4-(3'-methyl)-phenylaminopyridine], in test [1], the “% inhibition of acute oedema” value is reported as 76.8%. The same compound registered a Diuresis in test [2] of 81.6 mL/kg.
The like results for `CCNC(=O)NS(=O)(=O)c1cnccc1Nc1cccc(F)c1` [JDL 465, 3-ethylcarbamylsulfonamido-4-(3'-fluoro)-phenylaminopyridine] were, in that order, 71.2% and 76.7 mL/kg.
The like results for `CC(C)NC(=O)NS(=O)(=O)c1cnccc1Nc1cccc(F)c1` [JDL 466, 3-isopropylcarbamylsulfonamido-4-(3'-fluoro)-phenylaminopyridine] were, in that order, 68.0% and 70.7 mL/kg.
The like results for `CCNC(=O)NS(=O)(=O)c1cnccc1Nc1cccc(Br)c1` [JDL 467, 3-ethylcarbamylsulfonamido-4-(3'-bromo)-phenylaminopyridine] were, in that order, 69.6% and 65.8 mL/kg.
In the case of `CC(C)NC(=O)NS(=O)(=O)c1cnccc1Nc1cccc(Br)c1` [JDL 468, 3-isopropylcarbamylsulfonamido-4-(3'-bromo)-phenylaminopyridine], the “% inhibition of acute oedema” value in test [1] turned out to be 72.0%. The same compound had a Diuresis in test [2] of 77.2 mL/kg.
Taken in the same sequence, the figures for `CCNC(=O)NS(=O)(=O)c1cnccc1Nc1cccc(OC)c1` [JDL 469, 3-ethylcarbamylsulfonamido-4-(3'-methoxy)-phenylaminopyridine] were 60.8% and 46.9 mL/kg.
Taken in the same sequence, the figures for `COc1cccc(Nc2ccncc2S(=O)(=O)NC(=O)NC(C)C)c1` [JDL 470, 3-isopropylcarbamylsulfonamido-4-(3'-methoxy)-phenylaminopyridine] were 83.2% and 74.9 mL/kg.
Take `CCNC(=O)NS(=O)(=O)c1cnccc1NCc1ccco1` [JDL 471, 3-ethylcarbamylsulfonamido-4-methylfurylaminopyridine]: in test [1], the “% inhibition of acute oedema” value worked out at 70.4%. In addition, the Diuresis in test [2] turned out to be 37.7 mL/kg.
The like results for `CC(C)NC(=O)NS(=O)(=O)c1cnccc1NCc1ccco1` [JDL 472, 3-isopropylcarbamylsulfonamido-4-methylfurylaminopyridine] were, in that order, 54.4% and 69.6 mL/kg.
The like results for `CCNC(=O)NS(=O)(=O)c1cnccc1Nc1cc(Cl)cc(Cl)c1` [JDL 473, 3-ethylcarbamylsulfonamido-4-(3',5'-dichloro)-phenylaminopyridine] were, in that order, 41.6% and 24.0 mL/kg.
The like results for `CCNC(=O)NS(=O)(=O)c1cnccc1Nc1ccc(Cl)c(Cl)c1` [JDL 475, 3-ethylcarbamylsulfonamido-4-(3',4'-dichloro)-phenylaminopyridine] were, in that order, 79.2% and 34.3 mL/kg.
As to `CC(C)NC(=O)NS(=O)(=O)c1cnccc1Nc1ccc(Cl)c(Cl)c1` [JDL 476, 3-isopropylcarbamylsulfonamido-4-(3',4'-dichloro)-phenylaminopyridine], in test [1], the “% inhibition of acute oedema” value is recorded as 92.0%. The Diuresis in test [2] came out at 42.1 mL/kg.
As to `CNC(=S)NS(=O)(=O)c1cnccc1Nc1cccc(Cl)c1` [JDL 477, 3-methylthiocarbamylsulfonamido-4-(3'-chloro)-phenylaminopyridine], in test [1], the “% inhibition of acute oedema” value came to 61.6%. The same compound came in with a Diuresis in test [2] of 43.6 mL/kg.
The like results for `CCNC(=S)NS(=O)(=O)c1cnccc1Nc1cccc(Cl)c1` [JDL 478, 3-ethylthiocarbamylsulfonamido-4-(3'-chloro)-phenylaminopyridine] were, in that order, 29.6% and 29.7 mL/kg.
As to `CC(C)NC(=S)NS(=O)(=O)c1cnccc1Nc1cccc(Cl)c1` [JDL 479, 3-isopropylthiocarbamylsulfonamido-4-(3'-chloro)-phenylaminopyridine], the “% inhibition of acute oedema” value in test [1] amounted to 45.6%. Further, the Diuresis in test [2] was found to be 44.3 mL/kg.
The like results for `C=CCNC(=S)NS(=O)(=O)c1cnccc1Nc1cccc(Cl)c1` [JDL 480, 3-allyl-thiocarbamyl-sulfonamido-4-(3'-chloro)-phenylaminopyridine] were, in that order, 65.6% and 26.4 mL/kg.
The like results for `CC(C)NC(=O)NS(=O)(=O)c1cnccc1NC(C)C` [JDL 482, 3-isopropylcarbamylsulfonamido-4-isopropylaminopyridine] were, in that order, 0% and 25.3 mL/kg.
The like results for `CCN(CC)c1ccncc1S(=O)(=O)NC(=O)NC(C)C` [JDL 483, 3-isopropylcarbamylsulfonamido-4-diethylaminopyridine] were, in that order, 0% and 12.4 mL/kg.
For `CCN(CC)c1ccncc1S(N)(=O)=O` [JDL 484, 3-sulfonamido-4-diethylaminopyridine], the “% inhibition of acute oedema” value in test [1] came to 13.6%. The same compound registered a Diuresis in test [2] of 9.0 mL/kg.
